Laboratory results taken from the supplement of paper PMC12137928.
Counter-ions that a name gives are not always drawn.

System: HCT116
Conditions: 72 h
How it was run: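 Each well of the 1536-well plates received 250 HCT116 cells, which attached over 5 h. Luminescence was measured with CellTiter-Glo, scaled with vehicle as 0% and positive control as -100%, and pattern-corrected. A four-parameter Hill fit yielded IC50 and maximal efficacy.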

Structure (SMILES) | IC50 cell viability (ICRF193 0 nM) [µM] | IC50 cell viability (ICRF193 200 nM) [µM]
Cc1cnc(C(=O)NCCc2ccc(S(=O)(=O)NC(=O)NC3CCCCC3)cc2)cn1 [Glipizide] | > 45.8 | > 45.8
CCCCNc1cc(C(=O)O)cc(S(N)(=O)=O)c1Oc1ccccc1 [Bumetanide] | > 45.8 | > 45.8
CC(=O)Nc1ccc(S(=O)(=O)Nc2cc(C)on2)cc1 [N-Acetyl sulfamethoxazole] | > 45.8 | > 45.8
O=C(NCC(O)CO)c1c(I)c(C(=O)NCC(O)CO)c(I)c(N(CCO)C(=O)CO)c1I (centres undefined) [Ioversol] | > 45.8 | > 45.8
CC(C)C(=O)Oc1ccc(CO)cc1[C@H](CCN(C(C)C)C(C)C)c1ccccc1 [FESOTERODINE FUMARATE] | > 45.8 | > 45.8
CCCCC1=NC2(CCCC2)C(=O)N1Cc1ccc(-c2ccccc2-c2nnn[nH]2)cc1 [Irbesartan] | > 45.8 | > 45.8
COc1ccccc1OC(=O)Oc1ccccc1OC [Guaiacol carbonate] | > 45.8 | > 45.8
O=C(NNCS(=O)(=O)O)c1ccncc1 [Isoniazid sodium methanesulfonate] | > 45.8 | > 45.8
Cc1cccc(Cc2c[nH]cn2)c1C [Detomidine hydrochloride] | > 45.8 | > 45.8
CN(C)CCN(Cc1cccs1)c1ccccn1 [Methapyrilene hydrochloride] | > 45.8 | > 45.8
CN(C)C(=O)c1cc2cnc(Nc3ccc(N4CCNCC4)cn3)nc2n1C1CCCC1 [Ribociclib (LEE011)] | > 45.8 | > 45.8
Cc1ccnc2c1NC(=O)c1cccnc1N2C1CC1 [Nevirapine] | > 45.8 | > 45.8
O=C1O[C@@H]2[C@@H](O)[C@H](O)O[C@@H]2C1O (stereo partly drawn) [D-Glucuronolactone] | > 45.8 | > 45.8
C#C[C@]1(O)CC[C@H]2[C@@H]3CCC4=CCCC[C@@H]4[C@H]3C(=C)C[C@@]21CC [Desogestrel] | > 45.8 | > 45.8
COC(=O)[C@H]1[C@H]2C[C@@H]3c4[nH]c5cc(OC)ccc5c4CCN3C[C@H]2C[C@@H](OC(=O)/C=C/c2cc(OC)c(OC)c(OC)c2)[C@@H]1OC [Rescinnamin] | > 45.8 | > 45.8
CC(C(=O)O)c1ccc2c(c1)CC(=O)c1ccccc1S2 (centres undefined) [Zaltoprofen] | > 45.8 | > 45.8
CC(C)(O)CNc1nc(Nc2ccnc(C(F)(F)F)c2)nc(-c2cccc(C(F)(F)F)n2)n1 [Enasidenib] | > 45.8 | > 45.8
O=C(NC(Cc1cc(=O)[nH]c2ccccc12)C(=O)O)c1ccc(Cl)cc1 (centres undefined) [Rebamipide] | > 45.8 | > 45.8
NS(=O)(=O)c1ccc(N2CCCCS2(=O)=O)cc1 [Sulthiame] | > 45.8 | > 45.8
Cc1cccc(Nc2ccccc2C(=O)O)c1C [Mefenamic acid] | > 45.8 | > 45.8
CN1[C@@H]2CC[C@H]1C[C@@H](NC(=O)n1c(=O)[nH]c3ccccc31)C2 [Itasetron] | > 45.8 | > 45.8

Structure (SMILES) | IC50 cell viability (ICRF193 0 nM) [µM] | IC50 cell viability (ICRF193 200 nM) [µM]
Nc1nc2c(ncn2COC(CO)CO)c(=O)[nH]1 [Ganciclovir] | > 45.8 | > 45.8
O=S(=O)(O)OC[C@H]1O[C@@](COS(=O)(=O)O)(O[C@H]2O[C@H](COS(=O)(=O)O)[C@@H](OS(=O)(=O)O)[C@H](OS(=O)(=O)O)[C@H]2OS(=O)(=O)O)[C@@H](OS(=O)(=O)O)[C@@H]1OS(=O)(=O)O [Sucrose octasulfate, sodium salt] | > 45.8 | > 45.8
CC[C@@H](C(N)=O)N1CCCC1=O [Levetiracetam] | > 45.8 | > 45.8
Oc1ncnc2[nH]ncc12 [Allopurinol] | > 45.8 | > 45.8
CC(=O)c1cc2cccc(OCC(O)CNC(C)C)c2o1 (centres undefined) [Befunolol] | > 45.8 | > 45.8
O=C(CCCN1CCC(n2c(=O)[nH]c3ccccc32)CC1)c1ccc(F)cc1 [Benperidol] | > 45.8 | > 45.8
CC(=O)N[C@H](Cc1ccc2ccccc2c1)C(=O)N[C@H](Cc1ccc(Cl)cc1)C(=O)N[C@H](Cc1cccnc1)C(=O)N[C@@H](CO)C(=O)N[C@@H](Cc1ccc(O)cc1)C(=O)N[C@H](CCCNC(N)=O)C(=O)N[C@@H](CC(C)C)C(=O)N[C@@H](CCCNC(=N)N)C(=O)N1CCC[C@H]1C(=O)N[C@H](C)C(N)=O [Cetrorelix] | > 45.8 | > 45.8
CC1CC(=O)NN=C1c1ccc(NCC(C)(C)NCC(O)COc2cc(Cl)ccc2C#N)cc1 (centres undefined) [Oberadilol] | > 45.8 | > 45.8
O=C(O)C(=O)O.[NH-][C@@H]1CCCC[C@H]1[NH-].[Pt+2] [Oxaliplatin] | > 45.8 | > 45.8
CCOC(=O)Nc1ccc2c(c1)N(C(=O)CCN1CCOCC1)c1ccccc1S2 [Moricizine hydrochloride] | > 45.8 | > 45.8
NC(=O)OCC(O)COc1ccc(Cl)cc1 (centres undefined) [Chlorphensin carbamate] | > 45.8 | > 45.8
CC(C)NC[C@@H](O)COc1cccc2ccccc12 [Dexpropranolol] | > 45.8 | > 45.8
CN(C)CCc1c[nH]c2ccc(C[C@H]3COC(=O)N3)cc12 [Zolmitriptan] | > 45.8 | > 45.8
CC(Cc1ccc(O)cc1)NCC(O)c1cc(O)cc(O)c1 (centres undefined) [Fenoterol hydrobromide] | > 45.8 | > 45.8
COP(=O)(OC)C(O)C(Cl)(Cl)Cl (centres undefined) [Trichlorfon] | > 45.8 | > 45.8
CCN1C(=O)c2ccccc2C1Nc1ccc(OCCN2CCCCC2)cc1 (centres undefined) [Etomidoline] | > 45.8 | > 45.8
O=C(OCCO)c1ccccc1O [BETA-HYDROXYETHYL SALICYLATE] | > 45.8 | > 45.8
O=P1(N(CCCl)CCCl)NCCCO1 (centres undefined) [Cyclophosphamide] | > 45.8 | > 45.8
CC(C)N1CCN(c2ccc(OCC3COC(Cn4cncn4)(c4ccc(Cl)cc4Cl)O3)cc2)CC1 (centres undefined) [Terconazole] | > 45.8 | > 45.8
Cl.Cl.c1ccc(CNCCNCc2ccccc2)cc1 [N,N'-Dibenzylethane-1,2-diamine dihydrochloride] | > 45.8 | > 45.8
NC(=O)c1cc[n+](CC2=C(C(=O)[O-])N3C(=O)[C@@H](NC(=O)Cc4cccs4)[C@H]3SC2)cc1 [Cefalonium] | > 45.8 | > 45.8

Structure (SMILES) | IC50 cell viability (ICRF193 0 nM) [µM] | IC50 cell viability (ICRF193 200 nM) [µM]
CCOC(=O)c1ccc(OC(=O)CCCCCNC(=N)N)cc1 [Gabexate mesilate] | > 45.8 | > 45.8
CCCS(=O)(=O)Nc1ccc(F)c(C(=O)c2c[nH]c3ncc(-c4ccc(Cl)cc4)cc23)c1F [Vemurafenib] | > 45.8 | > 45.8
Nc1nc(-n2cc(C(=O)O)c(=O)c3cc(F)c(N4CC(O)C4)c(Cl)c32)c(F)cc1F [Delafloxacin (meglumine)] | > 45.8 | > 45.8
CNCC(=O)OCc1cccnc1N(C)C(=O)OC(C)[n+]1cnn(C[C@](O)(c2cc(F)ccc2F)[C@@H](C)c2nc(-c3ccc(C#N)cc3)cs2)c1 (some centres undefined) [ISAVUCONAZONIUM SULFATE] | > 45.8 | > 45.8
CC(=O)NS(=O)(=O)c1ccc(N)cc1 [Sulfacetamide] | > 45.8 | > 45.8
COc1ccc2c(c1)c(CC(=O)OCC(=O)O)c(C)n2C(=O)c1ccc(Cl)cc1 [Acemetacin] | > 45.8 | > 45.8
NC(=O)OCC(COC(N)=O)c1ccccc1 [Felbamate] | > 45.8 | > 45.8
O=S(=O)(O)Oc1ccc(C(c2ccc(OS(=O)(=O)O)cc2)c2ccccn2)cc1 [Picosulfate sodium] | > 45.8 | > 45.8
O=C(O)c1ccc2nc(-c3cc(Cl)cc(Cl)c3)oc2c1 [Tafamidis] | > 45.8 | > 45.8
CC(=O)O[C@H]1CC[C@H]2[C@@H]3CC[C@H]4CC(=O)C=C(C)[C@]4(C)[C@H]3CC[C@]12C [Methenolone (acetate)] | > 45.8 | > 45.8
Cc1cc2cc3c(C)cc(=O)oc3c(C)c2o1 [Trioxsalen] | > 45.8 | > 45.8
CO[C@@]1(NC(=O)Cc2cccs2)C(=O)N2C(C(=O)O)=C(COC(N)=O)CS[C@@H]21 [Cefoxitin] | > 45.8 | > 45.8
C=CCNC(N)=S [Allylthiourea] | > 45.8 | > 45.8
CC(C(=O)O)c1ccc(-c2ccccc2)c(F)c1 (centres undefined) [Flurbiprofen] | > 45.8 | > 45.8
COc1cc(N)c(Cl)cc1C(=O)NC1CCN(Cc2ccccc2)CC1 [Clebopride maleate] | > 45.8 | > 45.8
C[C@]12CC[C@H](O)CC1=CC[C@@H]1[C@@H]2CC[C@]2(C)C(=O)CC[C@@H]12 [Dehydroepiandrosterone] | > 45.8 | > 45.8
CN1CC(O)C2=C/C(=N/NC(N)=O)C(=O)C=C21 (centres undefined) [Adrenochrome semicarbazone] | > 45.8 | > 45.8
CN(C)CCC(c1ccc(Br)cc1)c1ccccn1 (centres undefined) [Brompheniramine (maleate)] | > 45.8 | > 45.8
NC(=O)c1ccc[n+]([C@@H]2O[C@H](COP(=O)([O-])OP(=O)(O)OC[C@H]3O[C@@H](n4cnc5c(N)ncnc54)[C@H](O)[C@@H]3O)[C@@H](O)[C@H]2O)c1 [NAD+] | > 45.8 | > 45.8
O=C(c1ccccc1)c1ccc2n1CCC2C(=O)O (centres undefined) [Ketorolac] | > 45.8 | > 45.8
